PMC9161444, “In-Membrane Nanostructuring of Cationic Amphiphiles Affects Their Antimicrobial Efficacy and Cytotoxicity: A Comparison Study between a De Novo Antimicrobial Lipopeptide and Traditional Biocides” (Langmuir, 2022)

Assay: Surface tension measurements (CAC, area per molecule)
Type: physicochemical
Details: Krüss K11, 25 °C, PBS or saline (171.5 mM NaCl, pH 7.2) of equivalent ionic strength, saline for C14KKGGII, points repeated at least three times
Method: Surface tensions of salt solutions of the amphiphiles were measured using a Krüss Force Tensiometer K11 at 25 °C. Saline (171.5 mM NaCl, final pH 7.2) instead of phosphate-buffered saline (PBS) was used to dissolve the samples of peptide C14KKGGII in order to avoid gelation above 0.1 mM. The ionic strength of the saline solution was the same as that of the PBS (consisting of 137 mM NaCl, 2.7 mM KCl, 8.1 mM Na2HPO4, and 1.9 mM KH2PO4, pH 7.2) solution employed in antimicrobial assays. Concentration effects on the surface tension were investigated for each amphiphile, and its CAC in the buffer environment was determined. All the data points were repeated at least three times. Quadratic functions were used to fit the surface tension at low concentrations below their CACs, while linear functions were used to fit the high concentration regions above the CACs for all three amphiphiles: [drawing 1] 1 [drawing 2] 2 where γ represents the surface tension in milli-newtons per meter, C is the amphiphile concentration in millimolar, and a1, b1, b2, c1, and c2 are the best fitted parameters. Intersections of the two lines give the estimated CACs of the amphiphiles. The Gibbs equation for solutions with a constant and excess salt is [drawing 3] […] The areas per molecule for the three amphiphiles at their CACs were calculated using [drawing 6] […]

CCCCCCCCCCCC[N+](C)(C)C.[Br-] [C12TAB, dodecyltrimethylammonium bromide]
CAC (critical aggregation concentration): ~1000 ± 100 µM
